According to article PMC8274952 (European journal of medicinal chemistry, 2019):

Tests used:
[1] = tested on: A549 cells; assay: cells; details: Homo sapiens, A549, 72 h, read-out: GI50 ± SD
[2] = biological target: T1, TOP1-DNA covalent cleavage complexes (TOP1cc) (Homo sapiens, UniProt P11387); assay: Immunocomplex of enzyme to DNA; details: HCT116 cells; for Induction of cellular TOP1cc: 1 h, CPT 25 and 50 μM, 12 at 25, 50 and 100 μM
T1 sequence (P11387 2-765 limits assumed): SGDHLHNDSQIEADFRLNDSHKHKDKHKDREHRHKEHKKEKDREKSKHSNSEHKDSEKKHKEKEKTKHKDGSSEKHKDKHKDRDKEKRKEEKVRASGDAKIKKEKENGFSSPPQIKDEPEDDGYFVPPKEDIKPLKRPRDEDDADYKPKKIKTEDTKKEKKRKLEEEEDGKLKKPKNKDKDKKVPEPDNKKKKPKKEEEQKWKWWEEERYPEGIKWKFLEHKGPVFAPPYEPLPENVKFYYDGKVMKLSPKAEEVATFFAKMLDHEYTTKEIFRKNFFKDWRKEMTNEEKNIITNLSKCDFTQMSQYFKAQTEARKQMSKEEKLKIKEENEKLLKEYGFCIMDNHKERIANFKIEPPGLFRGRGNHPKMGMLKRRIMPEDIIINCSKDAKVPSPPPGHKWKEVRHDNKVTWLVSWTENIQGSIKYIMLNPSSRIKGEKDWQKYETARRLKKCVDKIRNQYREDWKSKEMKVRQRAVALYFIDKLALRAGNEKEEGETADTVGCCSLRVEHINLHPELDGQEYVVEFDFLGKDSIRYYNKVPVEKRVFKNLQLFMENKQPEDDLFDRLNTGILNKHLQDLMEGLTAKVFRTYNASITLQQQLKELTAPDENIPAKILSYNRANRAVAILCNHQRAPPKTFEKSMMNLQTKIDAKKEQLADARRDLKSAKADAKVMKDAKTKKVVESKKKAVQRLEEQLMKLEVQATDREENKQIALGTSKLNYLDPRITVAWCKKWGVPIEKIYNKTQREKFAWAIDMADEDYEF

[3] = tested on: HCT116 cells; details: 0.5, 1 and 2 μM, 24 h
[4] = tested on: Kunming male mice; assay: Acute toxicity in vivo; details: n = 6
[5] = tested on: human colon cancer HCT116 xenograft; assay: In vivo antitumor efficiency, HCT116 xenograft; details: HCT116 xenograft nude mice; 5, 10, 20 mg/kg ip daily
[6] = tested on: human breast cancer MCF-7 xenograft; assay: In vivo antitumor efficiency, MCF-7 xenograft; details: MCF-7 xenograft nude mice; 5, 10, 20 mg/kg ip daily
[7] = tested on: γH2AX foci; assay: γH2AX foci immunofluorescence in HCT116 cells; type: cell-based, human; details: 1 μM, 3 h

Compound | GI50 [1] | Induction of cellular TOP1cc [2] | Induction of apoptosis [3] | mice survival ([4]; 122.9 mg/kg single ip dose, 7 days) | mice survival ([4]; 153.6 mg/kg single ip dose, 7 days) | mice survival ([4]; 192 mg/kg single ip dose, 7 days) | mice survival ([4]; 240 mg/kg single ip dose, 7 days) | mice survival ([4]; 300 mg/kg single ip dose) | tumor volume [5] | Induction of cellular TOP1cc compared with CPT ([2]; 25 μM) | tumor volume [6] | Induction of γH2AX foci (DNA damage) [7]
CC[C@@]1(O)C(=O)OCc2c1cc1n(c2=O)Cc2cc3ccccc3nc2-1 [CPT, camptothecin, reference compound] | 99 ± 17 nM | induce the formation of cellular TOP1cc in a dose-dependent manner | – | – | – | – | – | – | – | – | – | –
CNCCn1c(=O)c2cc(OC)c(OC)cc2c2ccc3cc4c(cc3c21)OCO4 [Compound 12, 2,3-Dimethoxy-12-(2-(methylamino)ethyl)-[1,3]dioxolo[4’,5’:4,5]benzo[1,2-c]phenanthridin-13(12H)-one] | – | induce the formation of cellular TOP1cc in a dose-dependent manner | induce HCT116 cells apoptosis in a dose-dependent manner | all mice survived | four mice survived | three mice survived | two mice survived | All mice died within 5 days | significantly reduced the tumor volume in a dose-dependent manner | higher ability to induce cellular TOP1cc at 25 μM than CPT | significantly reduced the tumor volume in a dose-dependent manner | effectively induces γH2AX foci
